Measured values published in article PMC3114813 (Environmental Health Perspectives, 2011).

Legend:
[1] = tested on: MDA-kb2 cells; details: EC20 = concentration that produces a 20% effect
Experimental: MDA-kb2 cells are human breast cancer cells stably transfected with a firefly luciferase reporter gene that is driven by an androgen-response element–containing promoter ([Wilson et al. 2002]). Details of the modified assay were published previously ([Ermler et al. 2010]). Briefly, cells were seeded at a concentration of 1 × 10^5 cells/mL in phenol red–free Leibowitz-15 medium (Invitrogen Ltd., Paisley, UK) containing 10% (charcoal-stripped) fetal calf serum (Invitrogen Ltd.) in white luminometer plates and allowed to attach for 24 hr. Cells were then exposed to eight serial dilutions of selected pesticides with or without DHT (0.25 nM). After 24 hr, luciferase activity was determined with SteadyGlo assay reagent (Promega UK Ltd., Southampton, Hampshire, UK) and measured in a plate reader (FLUOstar Optima, BMG Labtech GmbH, Offenburg, Germany). […] All concentrations were tested in duplicate over two plates, and each pesticide was measured at least twice in separate experiments. For comparative purposes, luminescence was normalized to DHT alone at coexposure concentration (maximum response, 100%) and solvent-only (ethanol) controls (minimum response, 0%). […] Pesticides were initially tested over a concentration range of 0.64 nM–50 μM (5× dilutions) as a range-finding exercise. Subsequently, the concentration ranges were modified to reflect the potency and toxicity of each individual compound. […] Sixty percent of the pesticides were repeat tested using the same product but with new stock solutions and by a different experimenter.
To analyze antiandrogenic action, raw luminescence readings were normalized on a plate-by-plate basis to the means of the positive DHT controls (n = 8) and the solvent controls (n = 8) ([Ermler et al. 2010]). […] Specifically, a variety of nonlinear regression models were fitted independently to the same data set, and the best-fitting model was selected using a statistical goodness-of-fit criterion. […] Data considered to be statistically significant at p < 0.05 were analyzed using the best-fit approach as described above. All statistical analysis was performed using SAS statistical software (SAS Institute Inc., Cary, NC, USA). From the best-fitting model, we derived inhibitory concentrations for antiandrogenicity and effect concentrations for cytotoxicity.

[2] = tested on: yeast; experiment: YAS, cytotoxicity (turbidity at 620 nm); assay type: cell-based; details: EC20 = concentration that produces a 20% effect; yeast turbidity
Experimental: The methods for the YAS have been described previously ([Sohoni and Sumpter 1998]). Briefly, stimulation of the transfected AR causes a color change in the media, which is measured by absorbance at 540 nm (Labsystems Multiskan Multisoft, Vienna, VA, USA). Plates were also measured at 620 nm to measure cell growth (turbidity) to check for any cytotoxic effects that may have occurred. Pesticides were coincubated with DHT (6.4 nM). […] Incubation time was 53 hr at 28°C. […] Pesticide serial dilutions were tested in duplicate over two plates and were tested in two separate experiments.

[3] = tested on: rats; details: 12 mg/kg body weight/day, ref EFSA 2005; cited from earlier work
[4] = stored grain, < 24 weeks; ref EFSA 2005; cited from earlier work
[5] = tested on: adult male rats; details: 90 days, ref Ngoula et al. 2007, cited from earlier work

Compound: CCN(CC)c1nc(C)cc(OP(=S)(OC)OC)n1 [Pirimiphos-methyl]
- Cytotoxic EC20 (μM) MDA-kb2 [1]: > 50 µM
- Cytotoxic EC20 (μM) YAS [2]: > 200 µM
- Testicular effect of maternal and postnatal exposure [3]: testicular tubular atrophy
- Unchanged parent compound on stored grain [4]: 70%
- Fertility ([5]; 125 mg/kg body weight/day): decreased fertility
- Sperm density and mobility ([5]; 125 mg/kg body weight/day): decreased sperm density and mobility
- Testicular atrophy, lowest observed adverse effect level [5]: 41.67 mg/kg body weight/day
